Test results taken from patent publication US6737383B1, “Herbicidal oxadiazolidines” (priority 1999, dated 2004).

Assays:
Russian thistle = test: Test E Russian thistle; type: in vivo, Salsola kali; details: Preemergence
wild mustard [1] = test: Test E wild mustard; type: in vivo, Sinapis arvensis; details: Preemergence
purple nutsedge = test: Test C postemergence purple nutsedge; type: in vivo, Cyperus rotundus; details: 0 to 100 scale, 0 no effect, 100 complete control
Outline: (§1)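 Scores (0 = no effect, 100 = complete control) come from visual comparison with untreated controls after about 14–21 days. Spray formulation was a non-phytotoxic solvent mixture including surfactant; plants grew in a 60:40 sandy loam–potting mix blend.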

jointed goatgrass [2] = test: Test E jointed goatgrass; type: in vivo, Aegilops cylindrica; details: Postemergence; for Plant response rating, Jointed goatgra: 0 to 100 scale
Outline: (§2)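 Visually scored herbicidal effect relative to untreated plants, taken ~21 to 28 days post-application; compound in solvent with surfactant; postemergence sprays at the 1- to 4-leaf stage.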

wild mustard [3] = test: Test E wild mustard; type: in vivo, Sinapis arvensis; details: Postemergence; for Plant response rating, Wild mustard: 0 to 100 scale
Outline: as §2

Spanishneedles = test: Test D Spanishneedles; type: in vivo, Bidens bipinnata; details: Postemergence, 0 to 100 scale
guineagrass = test: Test D guineagrass; type: in vivo, Panicum maximum; details: Postemergence, 0 to 100 scale
field violet = test: Test E field violet; type: in vivo, Viola arvensis; details: Postemergence; for Plant response rating, Field violet: 0 to 100 scale
Outline: as §2

sandbur = test: Test D sandbur; type: in vivo, Cenchrus echinatus; details: Postemergence, 0 to 100 scale
rape = test: Test E rape; type: in vivo, Brassica napus; details: Preemergence
soybean = test: Test C postemergence soybean; type: in vivo, Glycine max; details: 0 to 100 scale, 0 no effect, 100 complete control
Outline: as §1

itchgrass = test: Test D itchgrass; type: in vivo, Rottboellia exaltata; details: Postemergence, 0 to 100 scale
jointed goatgrass [4] = test: Test E jointed goatgrass; type: in vivo, Aegilops cylindrica; details: Preemergence
fall panicum = test: Test C postemergence fall panicum; type: in vivo, Panicum dichotomiflorum; details: 0 to 100 scale, 0 no effect, 100 complete control
Outline: as §1

common ragweed = test: Test D common ragweed; type: in vivo, Ambrosia elatior; details: Postemergence, 0 to 100 scale
galium = test: Test E galium; type: in vivo, Galium aparine; details: Preemergence
[5] = Rate 125 g/ha, 0 to 100 scale (0 no effect, 100 complete control)
[6] = Rate 500 g/ha, 0 to 100 scale where 0 is no effect and 100 is complete control
[7] = Rate 125 g/ha, 0 is no effect, 100 is complete control
[8] = Rate 250 g/ha, 0 to 100 scale where 0 is no effect and 100 is complete control
[9] = Rate 500 g/ha, 0 is no effect, 100 is complete control
[10] = Rate 16 g/ha, 0 no injury, 100 complete control
[11] = Rate 32 g/ha, 0 no injury, 100 complete control
[12] = Rate 64 g/ha, 0 no injury, 100 complete control
[13] = Rate 125 g/ha, 0 no injury, 100 complete control

CC(C)N(C(=O)n1oc(=O)n(C2CC2)c1=O)c1ccc(F)cc1 [Compound 242]
0: Plant response rating, Purple nutsedge (purple nutsedge; Rate 140 g/ha) | Plant response rating, Purple nutsedge (purple nutsedge; Rate 280 g/ha) | Plant response rating, Jointed goatgra (jointed goatgrass [2]; [7]) | Jointed goatgra plant response rating (jointed goatgrass [2]; [8]) | Plant response rating, Wild mustard (wild mustard [3]; Rate 62 g/ha) | Plant response rating, Spanishneedles (Spanishneedles; [10]) | Plant response rating, Spanishneedles (Spanishneedles; [11]) | Spanishneedles plant response rating (Spanishneedles; [12]) | Spanishneedles plant response rating (Spanishneedles; [13]) | Plant response rating, Guineagrass (guineagrass; [10]) | Plant response rating, Guineagrass (guineagrass; [12]) | Field violet plant response rating (field violet; [8]) | Plant response rating, Itchgrass (itchgrass; [10]) | Plant response rating, Itchgrass (itchgrass; [11]) | Plant response rating, Galium (galium; [5])
90: Plant response rating, Jointed goatgra (jointed goatgrass [4]; [6]) | Plant response rating Fall panicum (fall panicum; Rate 560 g/ha) | Plant response rating Fall panicum (fall panicum; Rate 1120 g/ha) | Plant response rating, C. ragweed (common ragweed; [13])
5: Plant response rating, Wild mustard (wild mustard [3]; [9])
80: Plant response rating, Purple nutsedge (purple nutsedge; Rate 1120 g/ha) | Guineagrass plant response rating (guineagrass; [12]) | Plant response rating, Itchgrass (itchgrass; [13]) | Jointed goatgra plant response rating (0 to 100 scale) (jointed goatgrass [4]; Rate 250 g/ha)
10: Plant response rating, Purple nutsedge (purple nutsedge; Rate 560 g/ha)
40: Plant response rating, Jointed goatgra (jointed goatgrass [2]; [9]) | Plant response rating, Field violet (field violet; [9]) | Plant response rating, Itchgrass (itchgrass; [12])
25: Plant response rating, Soybean (soybean; Rate 280 g/ha) | Plant response rating, Soybean (soybean; Rate 560 g/ha)
65: Plant response rating, Wild mustard (wild mustard [1]; [5]) | Wild mustard plant response rating (0 to 100 scale) (wild mustard [1]; Rate 250 g/ha) | Plant response rating, Soybean (soybean; Rate 1120 g/ha) | Plant response rating, Jointed goatgra (jointed goatgrass [4]; [5])
70: Plant response rating, Wild mustard (wild mustard [1]; [6])
55: Plant response rating, Jointed goatgra (jointed goatgrass [2]; Rate 62 g/ha)
20: Plant response rating, Russian thistle (Russian thistle; [5]) | Plant response rating, Wild mustard (wild mustard [3]; [7]) | Wild mustard plant response rating (wild mustard [3]; [8]) | Plant response rating, Sandbur (sandbur; [10]) | Plant response rating, Soybean (soybean; Rate 140 g/ha)
100: Plant response rating, Spanishneedles (Spanishneedles; Rate 250 g/ha) | Plant response rating, Guineagrass (guineagrass; [11]) | Plant response rating, Guineagrass (guineagrass; [13]) | Plant response rating, Guineagrass (guineagrass; Rate 250 g/ha) | Sandbur plant response rating (sandbur; [13]) | Plant response rating, Sandbur (sandbur; Rate 250 g/ha) | Plant response rating, Itchgrass (itchgrass; Rate 250 g/ha) | Plant response rating, C. ragweed (common ragweed; Rate 250 g/ha) | Galium plant response rating (0 to 100 scale) (galium; Rate 250 g/ha) | Plant response rating, Galium (galium; [6])
85: Plant response rating, Rape (rape; [6]) | Plant response rating Fall panicum (fall panicum; Rate 280 g/ha)
60: Plant response rating, Field violet (field violet; [7]) | Rape plant response rating (0 to 100 scale) (rape; Rate 250 g/ha)
50: Plant response rating, Russian thistle (Russian thistle; [6]) | Sandbur plant response rating (sandbur; [12]) | Plant response rating, Rape (rape; [5]) | Plant response rating, C. ragweed (common ragweed; [10])
30: Russian thistle plant response rating (0 to 100 scale) (Russian thistle; Rate 250 g/ha) | Plant response rating, Field violet (field violet; Rate 62 g/ha) | Plant response rating, Sandbur (sandbur; [11]) | Plant response rating Fall panicum (fall panicum; Rate 140 g/ha) | Plant response rating, C. ragweed (common ragweed; [11]) | Plant response rating, C. ragweed (common ragweed; [12])
